Measured values from PubChem BioAssay (NCI).
Values joined by “and” are separate entries in the source; they are usually repeats but may differ in a detail not shown here. Equal values may be shown once.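 Tested at 5 concentrations; 48 h exposure; 96-well plates; endpoints linearly interpolated, else capped at highest concentration. GI50 marks 50% less growth. TGI denotes the concentration required for complete inhibition of growth.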

Key:
Experiment in all cases: growth of human tumour cells (NCI), 48 h
BT-549 breast = tested on: BT-549 breast
SW-620 colon = tested on: SW-620 colon
UO-31 renal = tested on: UO-31 renal
CCRF-CEM leukemia = tested on: CCRF-CEM leukemia
MOLT-4 leukemia = tested on: MOLT-4 leukemia
A498 renal = tested on: A498 renal
SR leukemia = tested on: SR leukemia
SF-268 CNS = tested on: SF-268 CNS
KM12 colon = tested on: KM12 colon
MDA-N = tested on: MDA-N

## N#Cc1c(-c2ccccc2)c2c([nH]c1=O)-c1cc([N+](=O)[O-])ccc1CCC2
BT-549 breast
  TGI: 42.7 µM
SW-620 colon
  TGI: > 100 µM
UO-31 renal
  TGI: > 100 µM
CCRF-CEM leukemia
  TGI: 94.3 µM
MOLT-4 leukemia
  TGI: > 100 µM
A498 renal
  TGI: 41 µM
SR leukemia
  TGI: > 100 µM
SF-268 CNS
  TGI: > 100 µM
KM12 colon
  TGI: > 100 µM
MDA-N
  TGI: > 100 µM

## O=C(CC(C(=O)c1ccco1)c1ccco1)c1ccco1 (stereo unspecified)
SW-620 colon
  TGI: > 100 µM
UO-31 renal
  TGI: 92.5 µM
CCRF-CEM leukemia
  TGI: > 100 µM
MOLT-4 leukemia
  TGI: > 100 µM
A498 renal
  TGI: > 100 µM
SR leukemia
  TGI: > 100 µM
SF-268 CNS
  TGI: > 100 µM
KM12 colon
  TGI: > 100 µM
MDA-N
  TGI: > 100 µM

## S=C1NC2=C(CSC/C2=C\c2ccccc2)C(c2ccccc2)N1 (stereo unspecified)
BT-549 breast
  TGI: 78.7 µM
SW-620 colon
  TGI: > 100 µM
UO-31 renal
  TGI: > 100 µM
CCRF-CEM leukemia
  TGI: > 100 µM
MOLT-4 leukemia
  TGI: > 100 µM
SR leukemia
  TGI: > 100 µM
SF-268 CNS
  TGI: > 100 µM
KM12 colon
  TGI: > 100 µM
MDA-N
  TGI: > 100 µM

## C=C1C(=O)C23C(O)CC4C5(C)CCCC4(C(O)OC5)C2C(OC(C)=O)CC1C3O (stereo unspecified)
SW-620 colon
  TGI: 10.6 µM
UO-31 renal
  TGI: > 100 µM
CCRF-CEM leukemia
  TGI: 10.7 µM
MOLT-4 leukemia
  TGI: 17 µM
SR leukemia
  TGI: 18.5 µM
SF-268 CNS
  TGI: 32.4 µM
KM12 colon
  TGI: 22.1 µM

## C=CCN1C(=O)/C(=C/c2ccc(C)cc2)N=C1SC1OC(COC(C)=O)C(OC(C)=O)C(OC(C)=O)C1OC(C)=O (stereo unspecified)
BT-549 breast
  TGI: > 100 µM
SW-620 colon
  GI50: > 100 µM and 39.1 µM
  TGI: > 100 µM
CCRF-CEM leukemia
  GI50: 12.4 µM and 2.25 µM
MOLT-4 leukemia
  GI50: > 59.9 µM and 14.6 µM
  TGI: > 100 µM
A498 renal
  GI50: > 100 µM and 23.4 µM
  TGI: > 100 µM and 69.5 µM
SR leukemia
  GI50: 26.5 µM and 10.8 µM
  TGI: > 76.5 µM and 44.3 µM
KM12 colon
  TGI: > 100 µM and 17.9 µM
MDA-N
  TGI: > 100 µM

## CC(C)C(N)C(=O)NC(CCC(=O)NCCCCC(N)C(=O)NCCCNc1ccc([N+](=O)[O-])c2[nH]c3ccccc3c(=O)c12)C(N)=O (stereo unspecified)
BT-549 breast
  TGI: 29.4 µM
SW-620 colon
  TGI: > 100 µM
UO-31 renal
  TGI: > 100 µM
CCRF-CEM leukemia
  TGI: > 100 µM
A498 renal
  TGI: > 100 µM
SF-268 CNS
  TGI: > 100 µM
KM12 colon
  TGI: > 100 µM

## O=C(O)CCCCCCCCC(=O)O
SW-620 colon
  TGI: > 500 µM
UO-31 renal
  TGI: > 500 µM
CCRF-CEM leukemia
  TGI: > 500 µM
MOLT-4 leukemia
  TGI: > 500 µM
A498 renal
  TGI: > 23.2 µM
SF-268 CNS
  TGI: > 500 µM
KM12 colon
  TGI: > 500 µM

## CC1=NNC(=O)C1C1CC(c2c[nH]c3ccccc23)=NN=C1Cl (stereo unspecified)
BT-549 breast
  TGI: > 100 µM
SW-620 colon
  TGI: > 100 µM
UO-31 renal
  TGI: > 100 µM
CCRF-CEM leukemia
  TGI: 69.2 µM
MOLT-4 leukemia
  TGI: 75.8 µM
A498 renal
  TGI: > 100 µM
SF-268 CNS
  TGI: > 100 µM
KM12 colon
  TGI: 69.3 µM
MDA-N
  TGI: > 100 µM

## O=C(NN1C(=O)CSC1c1cccc(F)c1)c1ccncc1 (stereo unspecified)
SW-620 colon
  TGI: > 100 µM
UO-31 renal
  TGI: > 100 µM
CCRF-CEM leukemia
  TGI: > 100 µM
MOLT-4 leukemia
  TGI: > 100 µM
A498 renal
  TGI: > 100 µM
SF-268 CNS
  TGI: > 100 µM
KM12 colon
  TGI: > 100 µM

## COc1cc(C2c3cc4c(cc3[C@@H](Nc3ccc5c(c3)OCO5)C3COC(=O)[C@H]23)OCO4)cc(OC)c1O (stereo partly specified)
SW-620 colon
  TGI: > 37.6 µM
UO-31 renal
  TGI: 9.7 µM
CCRF-CEM leukemia
  TGI: 5.37 µM
MOLT-4 leukemia
  TGI: 0.236 µM
A498 renal
  TGI: 1.84 µM
SF-268 CNS
  TGI: 30 µM
KM12 colon
  TGI: 6.91 µM

## COC(=O)[C@H](Cc1ccccc1)NC(=O)N(CCC#N)CCN(C(=O)N[C@@H](Cc1ccccc1)C(=O)OC)c1ccccc1
BT-549 breast
  TGI: > 100 µM
SW-620 colon
  TGI: > 100 µM
UO-31 renal
  TGI: 31.9 µM
CCRF-CEM leukemia
  TGI: 87 µM
MOLT-4 leukemia
  TGI: 41.3 µM
A498 renal
  TGI: 39.8 µM
SF-268 CNS
  TGI: 45.6 µM
KM12 colon
  TGI: > 100 µM
MDA-N
  TGI: 33.8 µM

## CN1N=C(c2ccncc2)OC1c1ccccc1F (stereo unspecified)
SW-620 colon
  TGI: > 100 µM
UO-31 renal
  TGI: > 100 µM
CCRF-CEM leukemia
  TGI: > 100 µM
MOLT-4 leukemia
  TGI: > 100 µM
A498 renal
  TGI: > 100 µM
SF-268 CNS
  TGI: > 100 µM
KM12 colon
  TGI: > 100 µM
MDA-N
  TGI: > 100 µM

## Cc1cc(C)c(/C=C(\C(=C/c2c(C)cc(C)cc2C)[N+](=O)[O-])[N+](=O)[O-])c(C)c1
BT-549 breast
  TGI: > 100 µM
SW-620 colon
  TGI: > 100 µM
UO-31 renal
  TGI: > 100 µM
CCRF-CEM leukemia
  TGI: > 100 µM
MOLT-4 leukemia
  TGI: > 100 µM
SR leukemia
  TGI: > 100 µM
KM12 colon
  TGI: > 100 µM
MDA-N
  TGI: > 100 µM

## COc1ccc(/C=N/n2c(C)nc3c(sc(=S)n3-c3ccccc3)c2=O)cc1
SW-620 colon
  TGI: > 100 µM
UO-31 renal
  TGI: > 100 µM
CCRF-CEM leukemia
  TGI: 54.2 µM
MOLT-4 leukemia
  TGI: > 100 µM
A498 renal
  TGI: > 100 µM
SR leukemia
  TGI: > 100 µM
SF-268 CNS
  TGI: > 100 µM
KM12 colon
  TGI: > 100 µM

## C/C(=C\CO)CC/C=C(\C)CNc1ccc([N+](=O)[O-])cc1
BT-549 breast
  TGI: 37.5 µM
SW-620 colon
  TGI: > 100 µM
UO-31 renal
  TGI: 45.9 µM
MOLT-4 leukemia
  TGI: 18.4 µM
SR leukemia
  TGI: 27.1 µM
SF-268 CNS
  TGI: > 100 µM
KM12 colon
  TGI: 64.2 µM

## O=C1CS(=O)(=O)C(c2cccc(Oc3ccccc3)c2)N1c1cc(Cl)ccc1Cl (stereo unspecified)
BT-549 breast
  TGI: 41.3 µM
SW-620 colon
  TGI: > 100 µM
UO-31 renal
  TGI: 43.7 µM
CCRF-CEM leukemia
  TGI: > 100 µM
MOLT-4 leukemia
  TGI: > 100 µM
SR leukemia
  TGI: > 100 µM
SF-268 CNS
  TGI: 52.8 µM
KM12 colon
  TGI: 39.4 µM
MDA-N
  TGI: 35.1 µM

## CC#CC(O)(C(=O)OC1CC(C)N(C)C(C)(C)C1)C1CCCC1 (stereo unspecified)
BT-549 breast
  TGI: > 100 µM
SW-620 colon
  TGI: > 100 µM
UO-31 renal
  TGI: > 100 µM
CCRF-CEM leukemia
  TGI: > 100 µM
MOLT-4 leukemia
  TGI: > 100 µM
SR leukemia
  TGI: > 100 µM
SF-268 CNS
  TGI: > 100 µM
KM12 colon
  TGI: > 100 µM
MDA-N
  TGI: > 100 µM

## CC1(C)OC2COC3([C@@H]4OC(C)(C)O[C@@H]4CO)OC(C)(C)OC3C2O1 (stereo partly specified)
BT-549 breast
  TGI: > 100 µM
SW-620 colon
  TGI: > 100 µM
UO-31 renal
  TGI: > 100 µM
CCRF-CEM leukemia
  TGI: > 100 µM
A498 renal
  TGI: > 100 µM
SR leukemia
  TGI: > 100 µM
KM12 colon
  TGI: > 100 µM
MDA-N
  TGI: > 100 µM

## CCOC(=O)C1=CC(C)(C(=O)OCC)Nc2c(nc(N)[nH]c2=O)N1 (stereo unspecified)
BT-549 breast
  TGI: > 10 µM
SW-620 colon
  TGI: > 10 µM
UO-31 renal
  TGI: > 10 µM
CCRF-CEM leukemia
  TGI: > 10 µM
MOLT-4 leukemia
  TGI: > 10 µM
A498 renal
  TGI: > 10 µM
SF-268 CNS
  TGI: > 10 µM
KM12 colon
  TGI: > 10 µM
MDA-N
  TGI: > 10 µM

## COc1ccc(NC(C)c2ccncc2)cc1 (stereo unspecified)
BT-549 breast
  TGI: > 100 µM
SW-620 colon
  TGI: > 100 µM
UO-31 renal
  TGI: > 100 µM
CCRF-CEM leukemia
  TGI: > 100 µM
MOLT-4 leukemia
  TGI: > 100 µM
A498 renal
  TGI: > 100 µM
SF-268 CNS
  TGI: > 100 µM
KM12 colon
  TGI: > 100 µM
MDA-N
  TGI: > 100 µM

## CCN1C(=O)C(=C/C=C/c2ccc(N(CC)CC)cc2)C(=O)N(CC)C1=S
BT-549 breast
  TGI: > 100 µM
SW-620 colon
  TGI: > 100 µM
UO-31 renal
  TGI: > 100 µM
CCRF-CEM leukemia
  TGI: > 100 µM
MOLT-4 leukemia
  TGI: > 100 µM
SF-268 CNS
  TGI: > 100 µM
KM12 colon
  TGI: > 100 µM
MDA-N
  TGI: > 100 µM

## CCN(CCCl)c1cc(CN(C)C)cc(NC(=O)c2ccc(C(=O)Nc3cccc(CN(C)C)c3)cc2)c1
SW-620 colon
  TGI: 0.75 µM
UO-31 renal
  TGI: 76.3 µM
CCRF-CEM leukemia
  TGI: 0.669 µM
MOLT-4 leukemia
  TGI: 0.904 µM
A498 renal
  TGI: 7.33 µM
SR leukemia
  TGI: 1.56 µM
SF-268 CNS
  TGI: 63.1 µM
KM12 colon
  TGI: 3.69 µM
MDA-N
  TGI: 0.685 µM

## COc1ccc2c(c1)c(=O)c1c(NCCNCCO)ccc3c(=O)n(CCN(C)C)c(=O)n2c31
BT-549 breast
  TGI: 2.49 µM
SW-620 colon
  TGI: 5.94 µM
UO-31 renal
  TGI: 1.61 µM
CCRF-CEM leukemia
  TGI: > 100 µM
MOLT-4 leukemia
  TGI: > 100 µM
A498 renal
  TGI: 0.534 µM
SF-268 CNS
  TGI: 0.619 µM
KM12 colon
  TGI: 0.831 µM
MDA-N
  TGI: 0.279 µM

## O=C1OC(c2ccccc2)N(C(=O)c2ccccc2)C1Cc1ccc(OCc2ccccc2)cc1 (stereo unspecified)
SW-620 colon
  TGI: > 100 µM
UO-31 renal
  TGI: > 100 µM
CCRF-CEM leukemia
  TGI: > 100 µM
A498 renal
  TGI: 33.5 µM
SR leukemia
  TGI: > 100 µM
SF-268 CNS
  TGI: > 100 µM
MDA-N
  TGI: > 100 µM
